Experimental data as given in patent US11076595B2, “1-(n,n-disubstituted carbamoyl) 4-(substituted sulfonyl)triazolin-5-one derivative, 4-(n,n-disubstituted carbamoyl) 1-(substituted sulfonyl)triazolin-5-one derivative, and herbicide containing said derivative as active ingredient” (HOKKO CHEMICAL INDUSTRY CO., LTD., priority 2017, dated 2021).

How the values were obtained:
Format in all cases: in vivo
Echinochloa crus-galli [1] = assay: Test Example 1: herbicidal effect test by soil treatment in paddy field; conditions: 120 g/10a, paddy soil treatment just after sowing, 14 days after treatment
From the text: (§1) A Wagner pot having an area of 1/10000 are was filled with paddy field soil and after adding water, a chemical fertilizer (N:P:K=17:17:17) was mixed, followed by puddling. Thereafter, 30 grains of each of Echinochloa crus-galli, broad-leaved weed (Lindernia pyxidaria and Monochoria vaginalis) and Scirpus juncoides seeds were sown to a depth of 0 to 1 cm. Immediately after the sowing, the pot was flooded, and the depth of water was kept at about 3 cm. The pot was subsequently managed in a glass greenhouse. Just after that, an emulsifiable concentrate prepared according to Formulation Example 5 by using the compound shown in Table 5 below was diluted with water, and a predetermined amount of the water-diluted formulation was added dropwise. The application rate of the active ingredient, by conversion, corresponded to 120 g per 10 are.
(§2) This test was performed with two replications per one formulation concentration plot, and 14 days after the formulation treatments, the weed suppression rate (%) was determined according to the following equation (Math. 1). Weed suppression rate (%)=(1−an average dry weight (g) of plants in treated plots/an average dry weight (g) of plants in untreated plots)×100 [Math. 1]

Lindernia pyxidaria [2] = assay: as above; conditions: 120 g/10a, paddy soil treatment just after sowing, 14 days after treatment
From the text: as §1, §2

Monochoria vaginalis [3] = assay: as above; conditions: 120 g/10a, paddy soil treatment just after sowing, 14 days after treatment
From the text: as §1, §2

Scirpus juncoides [4] = assay: as above; conditions: 120 g/10a, paddy soil treatment just after sowing, 14 days after treatment
From the text: as §1, §2

Echinochloa crus-galli [5] = assay: Test Example 2: herbicidal effect test by treatment during growing period in paddy field; conditions: treatment 7 days after sowing, 120 g/10a, evaluated 14 days after treatment
Procedure: as §2
as §1, with “greenhouse. Seven days” for “greenhouse. Just”, “after sowing,” for “after that,”, “Table 6” for “Table 5”, “are. The test was performed with two replications per one formulation concentration plot, and 14 days after the formulation treatments, the weed suppression rate (%) was determined according to the equation (Math. 1).” for “are.”

Lindernia pyxidaria [6] = assay: as above; conditions: treatment 7 days after sowing, 120 g/10a, evaluated 14 days after treatment
Procedure: as §2
as §1, with “greenhouse. Seven days” for “greenhouse. Just”, “after sowing,” for “after that,”, “Table 6” for “Table 5”, “are. The test was performed with two replications per one formulation concentration plot, and 14 days after the formulation treatments, the weed suppression rate (%) was determined according to the equation (Math. 1).” for “are.”

Monochoria vaginalis [7] = assay: as above; conditions: treatment 7 days after sowing, 120 g/10a, evaluated 14 days after treatment
Procedure: as §2
as §1, with “greenhouse. Seven days” for “greenhouse. Just”, “after sowing,” for “after that,”, “Table 6” for “Table 5”, “are. The test was performed with two replications per one formulation concentration plot, and 14 days after the formulation treatments, the weed suppression rate (%) was determined according to the equation (Math. 1).” for “are.”

Scirpus juncoides [8] = assay: as above; conditions: treatment 7 days after sowing, 120 g/10a, evaluated 14 days after treatment
Procedure: as §2
as §1, with “greenhouse. Seven days” for “greenhouse. Just”, “after sowing,” for “after that,”, “Table 6” for “Table 5”, “are. The test was performed with two replications per one formulation concentration plot, and 14 days after the formulation treatments, the weed suppression rate (%) was determined according to the equation (Math. 1).” for “are.”

Compound	weed suppression rate, Echinochloa crus-galli (Echinochloa crus-galli [1]) [%]	weed suppression rate, Lindemia pyxidaria (Lindernia pyxidaria [2]) [%]	weed suppression rate, Monochoria vaginalis (Monochoria vaginalis [3]) [%]	weed suppression rate, Scirpus juncoides (Scirpus juncoides [4]) [%]	weed suppression rate, Echinochloa crus-galli (Echinochloa crus-galli [5]) [%]	weed suppression rate, Lindemia pyxidaria (Lindernia pyxidaria [6]) [%]	weed suppression rate, Monochoria vaginalis (Monochoria vaginalis [7]) [%]	weed suppression rate, Scirpus juncoides (Scirpus juncoides [8]) [%]
CC(C)N(C(=O)n1ncn(S(=O)(=O)C2CCOC2)c1=O)c1ccc(F)cc1F (racemic) [Compound 1-1161]	90	80	80	90	90	80	80	90
CC(C)N(C(=O)n1ncn(S(=O)(=O)C(C)C)c1=O)c1ccccc1F [Compound 1-55]	90	90	90	90	90	90	90	90
CC(C)N(C(=O)n1ncn(S(=O)(=O)C(C)C)c1=O)c1ccc(Cl)cc1F [Compound 1-73]	100	100	90	80	100	80	90	100
Cc1ccc(N(C(=O)n2ncn(S(=O)(=O)C(C)C)c2=O)C(C)C)c(Cl)c1 [Compound 1-81]	90	80	80	90	90	80	80	90
CC(C)N(C(=O)n1ncn(S(=O)(=O)C(C)C)c1=O)c1ccc(F)nc1 [Compound 1-91]	100	90	90	90	100	90	90	90
CC(C)N(C(=O)n1ncn(S(=O)(=O)C(C)C)c1=O)c1ccc(Cl)nc1 [Compound 1-97]	90	80	90	90	90	80	90	80
CC(C)N(C(=O)n1ncn(S(=O)(=O)C2CC2)c1=O)c1ccc(Br)cc1Cl [Compound 1-218]	100	100	80	100	100	100	80	100
CC(C)N(C(=O)n1ncn(S(=O)(=O)C2CC2)c1=O)c1ccc(Cl)cc1Br [Compound 1-219]	100	100	100	100	100	90	90	100
CC(C)N(C(=O)n1ncn(S(=O)(=O)c2cccs2)c1=O)c1ccc(F)cc1F [Compound 1-1060]	90	80	80	90	–	–	–	–
